From ChEMBL document CHEMBL4406871, “Novel berberine-based derivatives with potent hypoglycemic activity” (Bioorg Med Chem Lett, 2019) come the findings set out here.

The subject of data set [1] is HepG2. The experiment in a line: Increase in glucose consumption in human HepG2 cells assessed as glucose content in medium at 10^-6 M measured after 24 hrs by glucose oxidase method relative to control. In kind it is functional.
Data set [2] deals with AMP-activated protein kinase, AMPK (Homo sapiens) (UniProt P54646+O43741+P54619+Q9UGJ0+Q9Y478+Q13131+Q9UGI9). The experiment in a line: Activation of AMPK in human HepG2 cells assessed as induction of ACC phosphorylation at Ser79 residue at 10 uM by Western blot analysis. It counts as cell-based.
For data set [3], the system named is HepG2. The data set is described as follows: Activation of AMPKalpha in human HepG2 cells assessed as induction of AMPKalpha phosphorylation at Thr172 residue at 10 uM by Western blot analysis. In kind it is cell-based. In general terms: In western blotting, separated proteins are transferred to a membrane and probed.
Data set [4] has as its target T1, Peroxisome proliferator-activated receptor gamma (Homo sapiens, UniProt P37231).
T1 sequence (P37231 whole entry): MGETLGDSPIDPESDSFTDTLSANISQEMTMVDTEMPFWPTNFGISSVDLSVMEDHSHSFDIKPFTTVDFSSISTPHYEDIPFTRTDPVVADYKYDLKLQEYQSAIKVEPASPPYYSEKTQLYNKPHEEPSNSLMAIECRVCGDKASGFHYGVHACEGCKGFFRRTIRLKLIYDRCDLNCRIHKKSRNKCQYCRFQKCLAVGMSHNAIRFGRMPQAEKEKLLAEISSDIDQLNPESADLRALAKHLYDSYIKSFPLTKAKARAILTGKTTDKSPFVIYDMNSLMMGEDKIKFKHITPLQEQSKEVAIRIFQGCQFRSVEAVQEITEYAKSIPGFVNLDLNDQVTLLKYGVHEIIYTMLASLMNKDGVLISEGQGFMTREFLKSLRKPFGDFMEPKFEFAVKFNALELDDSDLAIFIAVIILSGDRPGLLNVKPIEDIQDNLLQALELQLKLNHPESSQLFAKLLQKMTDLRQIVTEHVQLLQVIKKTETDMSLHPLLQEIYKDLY
The data set is described as follows: Transactivation of human PPARgamma transfected in U2OS cells co-tranfected with human RXR measured after 24 hrs by luciferase reporter assay. In kind it is cell-based. Background: Reporter assays use an easily measured gene product as a stand-in for the process of interest.

Data set [5] deals with HepG2. The data set is described as follows: Increase in glucose consumption in human HepG2 cells assessed as glucose content in medium at 10^-6 M measured after 24 hrs by glucose oxidase method relative to metformin. It counts as functional.
Data set [6] relates to HepG2. The data set is described as follows: Increase in glucose consumption in human HepG2 cells assessed as glucose content in medium at 10^-6 M measured after 24 hrs by glucose oxidase method relative to berberine. In kind it is functional.
Data set [7] has as its system HepG2. The data set is described as follows: Increase in glucose consumption in human HepG2 cells assessed as glucose content in medium at 10^-6 M measured after 24 hrs by glucose oxidase method relative to rosiglitazone. It counts as functional.
The target of data set [8] is AMP-activated protein kinase (AMPK) alpha-1/beta-1/gamma-1 (Homo sapiens) (UniProt P54619+Q9Y478+Q13131). The experiment in a line: Agonist activity at AMPKalpha1beta1gamma1 (unknown origin). It counts as protein-complex assay.
Data set [9] can be described thus: Oral bioavailability in rat. In kind it is ADME, organism-based. The note with it: in vivo.

Activity calls are given as the source filed them. The rule behind the calls is not given here.

Sequence of AMP-activated protein kinase (AMPK) alpha-1/beta-1/gamma-1 (Homo sapiens) (P54619 whole entry): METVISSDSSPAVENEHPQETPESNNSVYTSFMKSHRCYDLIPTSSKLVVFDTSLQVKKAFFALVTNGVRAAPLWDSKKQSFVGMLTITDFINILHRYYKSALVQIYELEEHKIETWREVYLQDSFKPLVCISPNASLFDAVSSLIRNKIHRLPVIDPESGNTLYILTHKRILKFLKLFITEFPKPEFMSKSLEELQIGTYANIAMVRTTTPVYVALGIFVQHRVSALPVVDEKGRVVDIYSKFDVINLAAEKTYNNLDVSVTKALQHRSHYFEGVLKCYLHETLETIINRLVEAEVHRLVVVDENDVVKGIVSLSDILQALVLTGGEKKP
Sequence of AMP-activated protein kinase (AMPK) alpha-1/beta-1/gamma-1 (Homo sapiens) (Q13131 whole entry partner): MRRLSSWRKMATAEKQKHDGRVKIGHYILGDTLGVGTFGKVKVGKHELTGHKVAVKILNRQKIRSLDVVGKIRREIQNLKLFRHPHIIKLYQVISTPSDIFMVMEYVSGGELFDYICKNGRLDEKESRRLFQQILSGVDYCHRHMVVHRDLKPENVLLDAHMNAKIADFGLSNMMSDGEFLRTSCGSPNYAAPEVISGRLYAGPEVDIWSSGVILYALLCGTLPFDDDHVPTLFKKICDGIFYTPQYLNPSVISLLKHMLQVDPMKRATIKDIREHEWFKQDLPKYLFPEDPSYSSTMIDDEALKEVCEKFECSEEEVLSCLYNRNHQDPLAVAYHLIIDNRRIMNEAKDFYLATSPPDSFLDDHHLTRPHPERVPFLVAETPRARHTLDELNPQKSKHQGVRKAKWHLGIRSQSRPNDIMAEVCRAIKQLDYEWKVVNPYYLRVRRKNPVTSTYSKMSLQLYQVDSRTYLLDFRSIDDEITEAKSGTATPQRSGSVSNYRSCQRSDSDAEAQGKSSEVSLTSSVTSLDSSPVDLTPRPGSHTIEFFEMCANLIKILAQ
Sequence of AMP-activated protein kinase (AMPK) alpha-1/beta-1/gamma-1 (Homo sapiens) (Q9Y478 2-270 partner limits assumed): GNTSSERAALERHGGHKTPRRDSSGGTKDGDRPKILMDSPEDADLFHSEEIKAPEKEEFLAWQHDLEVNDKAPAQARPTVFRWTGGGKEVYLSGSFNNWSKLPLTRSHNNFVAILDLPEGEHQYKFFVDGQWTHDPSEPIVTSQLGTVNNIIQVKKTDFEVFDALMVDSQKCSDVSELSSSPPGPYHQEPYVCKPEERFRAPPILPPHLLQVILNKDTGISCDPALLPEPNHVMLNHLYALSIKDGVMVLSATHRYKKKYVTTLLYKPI

In the case of `CN(CCOc1ccc(CC2SC(=O)NC2=O)cc1)c1ccccn1` (stereo unspecified) [ROSIGLITAZONE], the Activity with HepG2 [1] was 13.87%.

Usually EC50 stands for the midpoint of the concentration-response curve. A high value points to weaker potency. Turning to `COc1cc2cc3[n+](cc2cc1OC)C(C(=O)O)Cc1cc2c(cc1-3)OCO2.[Cl-]` (stereo unspecified), the result (in data set [2]; in the data set on HepG2 [3]) was Active. The Activity in the data set on HepG2 [1] amounted to 6.92%. In data set [4], this molecule showed a half-maximal effective concentration (EC50) of more than 100 µM.

Turning to `COc1cc2c(cc1OC)CN1C(C(=O)O)Cc3cc4c(cc3C1C2)OCO4` (stereo unspecified), the “fold change (FC)” value in the data set with HepG2 [5] is listed as 1.39; in the data set with HepG2 [6] it was 3.23; in the data set with HepG2 [7] it was 1.2. The result (in data set [2]; in the data set with HepG2 [3]) was Active. The Activity in the data set with HepG2 [1] was determined as 16.76%. For the same molecule, in data set [4], the concentration for a half-maximal effect (EC50) was more than 100 µM.

Consider `COc1ccc2c(c1OC)CN1C(C(=O)O)Cc3cc4c(cc3C1C2)OCO4` (stereo unspecified), for which the Activity with HepG2 [1] is on record as 6.39%.

For the molecule `COc1ccc(OC)c2c1CC1c3cc4c(cc3CC(C(=O)O)N1C2)OCO4` (stereo unspecified), the Activity in the data set with HepG2 [1] was found to be 12.43%.

For the molecule `COc1cc2c[n+]3c(cc2c(OC)c1OC)-c1cc2c(cc1CC3CC(=O)O)OCO2.[Cl-]` (stereo unspecified), in the data set on HepG2 [1], the Activity amounted to 10.18%.

Take `COc1cc(OC)c2cc3[n+](cc2c1)C(C(=O)O)Cc1cc2c(cc1-3)OCO2.[Cl-]` (stereo unspecified): the Activity in the data set on HepG2 [1] turned out to be 8.62%.

Regarding `COc1ccc(OC)c2c[n+]3c(cc12)-c1cc2c(cc1CC3C(=O)O)OCO2.[Cl-]` (stereo unspecified), the Activity in the data set on HepG2 [1] came to 7.44%.

On to `COc1cc2c(c(OC)c1)CC1c3cc4c(cc3CC(C(=O)O)N1C2)OCO4` (stereo unspecified), for which the Activity in the data set on HepG2 [1] came to 9.65%.

Turning to `COc1ccc2c(c1OC)C[N+]1(CC(=O)O)CCc3cc4c(cc3C1C2)OCO4.[Cl-]` (stereo unspecified), in the data set with HepG2 [1], the Activity was found to be 15.4%.

Consider `O=C(O)C1CCC2C(C1)c1cc(OCc3ccccc3)ccc1N2C(=O)c1ccc(Cl)cc1` (stereo unspecified), for which the Activity in data set [8] came out at 362 nM.

Consider `COc1cc2c[n+]3c(cc2c(OC)c1OC)-c1cc2c(cc1CC3C(=O)O)OCO2.[Cl-]` (stereo unspecified), for which, in the data set on HepG2 [1], the Activity is given as 9.1%.

Regarding `COc1cc2cc3[n+](cc2cc1OC)C(CC(=O)O)Cc1cc2c(cc1-3)OCO2.[Cl-]` (stereo unspecified), the Activity with HepG2 [1] came to 15.31%.

Usually bioavailability stands for the share of a dose that reaches the circulation, judged against a reference dose that is usually intravenous. A high value points to good availability. On to `COc1ccc2cc3[n+](cc2c1OC)CCc1cc2c(cc1-3)OCO2.[Cl-]` [BERBERINE CHLORIDE], for which the Activity in the data set with HepG2 [1] was found to be 5.16%. In [9], this molecule gave a bioavailability of less than 1%.

Consider `COc1ccc2c(c1OC)C[N+]1(Cc3ccc(C(=O)O)cc3)CCc3cc4c(cc3C1C2)OCO4.[Cl-]` (stereo unspecified), for which, in the data set with HepG2 [1], the Activity was found to be 12.11%.

In the case of `COc1ccc2c(c1OC)C[N+]1(CCCC(=O)O)CCc3cc4c(cc3C1C2)OCO4.[Cl-]` (stereo unspecified), the “fold change (FC)” value is reported as 1.32 in the data set with HepG2 [5] and 1.15 in the data set with HepG2 [7]. The Activity in the data set with HepG2 [1] was 16%.

For `CN(C)C(=N)NC(=N)N` [METFORMIN], the Activity in the data set on HepG2 [1] came to 12.07%.

Turning to `COc1ccc2c(c1OC)C[N+]1(CCCCCC(=O)O)CCc3cc4c(cc3C1C2)OCO4.[Cl-]` (stereo unspecified), the Activity with HepG2 [1] came to 15.78%.

`COc1cc(OC)c2cc3[n+](cc2c1)C(CC(=O)O)Cc1cc2c(cc1-3)OCO2.[Cl-]` (stereo unspecified): in the data set with HepG2 [1], the Activity stood at 9.02%.

In the case of `COc1ccc2c(c1OC)CN1C(CC(=O)O)Cc3cc4c(cc3C1C2)OCO4` (stereo unspecified), the Activity with HepG2 [1] turned out to be 7.16%.

`COc1ccc2cc3[n+](cc2c1OC)C(C(=O)O)Cc1cc2c(cc1-3)OCO2.[Cl-]` (stereo unspecified): in the data set with HepG2 [1], the Activity came out at 1.88%.

With `COc1ccc(OC)c2c[n+]3c(cc12)-c1cc2c(cc1CC3CC(=O)O)OCO2.[Cl-]` (stereo unspecified), in the data set with HepG2 [1], the Activity is on record as 9.44%.

For `COc1ccc2c(c1OC)C[N+]1(CCCCC(=O)O)CCc3cc4c(cc3C1C2)OCO4.[Cl-]` (stereo unspecified), the Activity in the data set on HepG2 [1] came to 14.52%.

Consider `COc1ccc2cc3[n+](cc2c1OC)C(CC(=O)O)Cc1cc2c(cc1-3)OCO2.[Cl-]` (stereo unspecified), for which the Activity with HepG2 [1] came out at 2.8%.
